Data reported in publication PMC5739422, “Metabolomic profiling and stable isotope labelling of Trichomonas vaginalis and Tritrichomonas foetus reveal major differences in amino acid metabolism including the production of 2-hydroxyisocaproic acid, cystathionine and S-methylcysteine” (PLoS ONE, 2017).

System: recombinant T. vaginalis cysteine synthase (CS)
Test: coupled assay with MGL1 and LDH, NADH oxidation at […] nm
Type: biochemical, Trichomonas vaginalis
Details: 200 mM potassium phosphate pH 7.8, 37°C

Row | Structure (SMILES) | Km (SMC synthase reaction, 10 mM OPS) | Km (cysteine synthase reaction, 3 mM Na2S)
1 | CS [CH3SNa] | 4.3 ± 1.6 mM | 
2 | N[C@@H](COP(=O)(O)O)C(=O)O [OPS] |  | 18.2 ± 0.8 mM
